Data from the supplement of paper PMC10307832.

Experiments:
Test in all cases: relative viability (nuclei count vs DMSO), 5 days (fraction); higher = more cells survive
Tivantinib + Trametinib = compound: O=C1NC(=O)[C@@H](c2cn3c4c(cccc24)CCC3)[C@@H]1c1c[nH]c2ccccc12 [Tivantinib] + CC(=O)Nc1cccc(-n2c(=O)n(C3CC3)c(=O)c3c(Nc4ccc(I)cc4F)n(C)c(=O)c(C)c32)c1 [Trametinib] (partner 0.02 µM)
Summary of the method: (§1)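 Nuclei were stained with Hoechst during a one-step fixation (final 0.05% Triton X-100, 1% formaldehyde, 1 ug/ml Hoechst) carried out 5 days after dosing, then counted on 4× images. The cells, lung cancer lines in 1536-well plates, had been dosed by pin tool the day after seeding with one drug alone or a fixed anchor-drug dose plus five library-drug doses (not always all listed) in √10 steps. Relative viability is the nuclei count in treated wells divided by that in vehicle wells, and each value is the median of duplicate plates.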

Tivantinib + Pemetrexed = compound: O=C1NC(=O)[C@@H](c2cn3c4c(cccc24)CCC3)[C@@H]1c1c[nH]c2ccccc12 [Tivantinib] + Nc1nc2[nH]cc(CCc3ccc(C(=O)N[C@@H](CCC(=O)O)C(=O)O)cc3)c2c(=O)[nH]1 [Pemetrexed] (partner 0.2 µM)
Summary of the method: as §1

Tivantinib + Foretinib = compound: O=C1NC(=O)[C@@H](c2cn3c4c(cccc24)CCC3)[C@@H]1c1c[nH]c2ccccc12 [Tivantinib] + COc1cc2c(Oc3ccc(NC(=O)C4(C(=O)Nc5ccc(F)cc5)CC4)cc3F)ccnc2cc1OCCCN1CCOCC1 [Foretinib] (partner 0.25 µM)
Summary of the method: as §1

Crenolanib + Pemetrexed = compound: CC1(COc2ccc3c(c2)ncn3-c2ccc3cccc(N4CCC(N)CC4)c3n2)COC1 [Crenolanib] + Nc1nc2[nH]cc(CCc3ccc(C(=O)N[C@@H](CCC(=O)O)C(=O)O)cc3)c2c(=O)[nH]1 [Pemetrexed] (partner 0.2 µM)
Summary of the method: as §1

Cell Line	relative viability (Tivantinib + Trametinib; first compound 0.01 µM)	relative viability (Tivantinib + Trametinib; first compound 0.03162 µM)	relative viability (Tivantinib + Trametinib; first compound 0.1 µM)	relative viability (Tivantinib + Trametinib; first compound 0.3162 µM)	relative viability (Tivantinib + Pemetrexed; first compound 0.01 µM)	relative viability (Tivantinib + Pemetrexed; first compound 0.03162 µM)	relative viability (Tivantinib + Pemetrexed; first compound 0.1 µM)	relative viability (Tivantinib + Pemetrexed; first compound 0.3162 µM)	relative viability (Tivantinib + Foretinib; first compound 0.01 µM)	relative viability (Tivantinib + Foretinib; first compound 0.03162 µM)	relative viability (Tivantinib + Foretinib; first compound 0.1 µM)	relative viability (Tivantinib + Foretinib; first compound 0.3162 µM)	relative viability (Crenolanib + Pemetrexed; first compound 0.01 µM)	relative viability (Crenolanib + Pemetrexed; first compound 0.03162 µM)	relative viability (Crenolanib + Pemetrexed; first compound 0.1 µM)	relative viability (Crenolanib + Pemetrexed; first compound 0.3162 µM)	relative viability (Crenolanib + Pemetrexed; first compound 1 µM)
201T	0.694	0.713	0.729	0.69	0.328	0.281	0.357	0.319	1.16	1.01	1.02	0.921	0.324	0.323	0.34	0.322	0.338
HCC-78	0.761	0.696	0.589	0.445	0.893	0.878	0.933	0.879	0.548	0.547	0.539	0.441	0.864	1.01	0.909	0.956	0.865
NCI-H647	0.462	0.411	0.416	0.369	0.17	0.192	0.18	0.184	1.25	1.18	1.12	1.21	0.202	0.19	0.201	0.209	0.217
HARA	0.66	0.633	0.776	0.371	0.279	0.252	0.263	0.24	0.864	0.795	0.935	0.643	0.3	0.231	0.224	0.225	0.236
NCI-H650	0.936	0.787	0.899	0.945	1.19	0.842	0.839	0.909	1.03	0.987	0.989	0.822	1.03	1.01	0.93	0.932	0.918
NCI-H2085	0.62	0.484	0.544	0.516	0.975	0.773	0.876	0.75	0.921	1.13	0.916	0.666	–	0.88	0.878	0.936	0.949
NCI-H2347	0.246	0.316	0.231	0.248	0.405	0.454	0.394	0.419	0.94	1.12	0.712	1.05	0.4	0.425	0.397	0.447	0.436
NCI-H1944	0.449	0.406	0.444	0.345	0.603	0.582	0.619	0.546	0.795	0.874	0.851	0.63	0.735	0.646	0.562	0.837	0.542
